Where two headings read alike, the source gives them in different places.
Tests used:
[1] = Acute toxicity, LD50 of each drug in male mice (DBA); type: in vivo; conditions: mouse, in vivo
From the text: (§1) In this invention, 10-monohalo-fusaric acid can be prepared by dissolving dehydrofusaric acid in water or other suitable organic solvent, if necessary, together with a suitable reagent for generating hydrogen halide. Hydrogen halide is then introduced or generated to effect the addition reaction. […] The halo-fusaric halide can be prepared by reacting halogenating agent such as thionylchloride, hydrochloride with halo-fusaric acid in a solvent. The solvent can be inert solvent or halogenating agent such as thionyl chloride. The ahlo-fusaric acid amides of the invention can be prepared from the halo-fusaric halide in a solvent by introducing ammonia gas or adding methylamine, dimethylamine, ethylamine, diethylamine, etc.. The halogenating agents used for preparing halo-fusaric halide can be thionylchloride, hydrochloride, phosphorus pentachloride and phosphorus oxychloride. The thionylchloride can be used without a solvent, however, it is usual to carry out the halogenation of halo-fusaric acid in a solvent such as chloroform, benzene, etc.. The halo-fusaric halide reacts with ammonia or a lower alkylamine in a solvent such as chloroform, benzene, etc.. The ahlo-fusaric acid amide can be prepared from halo-fusaric acid ester by reacting it with an alkylamine. The halo-fusaric acid ester can be prepared by reacting halo-fusaric acid with an alcohol in the presence of […]. The details of the preparation of the halo-fusaric acid can be understood from the description of the examples. The halo-fusaric acid amides of the invention are characterized by a significant anti-hypertensive effects and low toxicity. The followings are test results of anti-hypertensive effects and toxicities of the typical halo-fusaric acid amides of the invention. The anti-hypertensive effects of dibromo, monobromo, dichloro and monochloro fusaric acid amide, monomethylamide, dimethylamide were compared with those of dibromofusaric acid and fusaric acid. Blood pressure of spontaneously hypertensive rats (SHR) derived from the colony of SHR produced by selective inbreeding of a strain of Wistar rats (Okamoto and Aoki, Jap. Circul. J. 27:282-293, 1963) was measured indirectly in unanaesthesized rats plethysmographically (Williams et al, J. Clin. Invest. 18:373-376, 1939). Thirty percent depression of systolic blood pressure was defined to be significant and effective change. […] LD50 of each drug was obtained using male mice (DBA).

[2] = system: spontaneously hypertensive rats (SHR); assay: Antihypertensive action in spontaneously hypertensive rats, systolic blood pressure measured plethysmographically; type: in vivo, Wistar-derived); conditions: for ED50: Rattus norvegicus
From the text: as §1

[3] = system: dopamine-β-hydroxylase; conditions: prior art statement; cited from earlier work
[4] = prior art statement; cited from earlier work
[5] = Solubility; type: physicochemical; conditions: qualitative
[6] = system: male mice (DBA); assay: Acute toxicity, LD50 of each drug in male mice (DBA); type: in vivo; conditions: male mice (DBA), summary statement
From the text: as §1

[7] = ip, intraperitoneal, male mice (DBA), read-out: LD50 (mg/kg) Intraperitaneally
[8] = oral, male mice (DBA), read-out: LD50 (mg/kg) Orally
[9] = ip, read-out: ED50 (mg/kg) Intraperitoneally
[10] = po, read-out: ED50 (mg/kg) Orally
[11] = ip, antihypertensive action, intraperitoneal, SHR, 30% depression of systolic blood pressure defined as effective, read-out: ED50 (mg/kg) Intraperitoneally
[12] = antihypertensive action, oral, SHR, 30% depression of systolic blood pressure defined as effective, read-out: ED50 (mg/kg) Orally

| Structure (SMILES) | LD50 [1, 7] [mg/kg] | LD50 [1, 8] [mg/kg] | ED50 [2, 9] [mg/kg] | ED50 [2, 10] [mg/kg] | inhibition of the production of dopamine-β-hydroxylase [3] | toxicity [4] | ED50 [2, 11] [mg/kg] | ED50 [2, 12] [mg/kg] | Solubility: insoluble [5] | Solubility: soluble [5] | LD50 ([1]; ip) [mg/kg] | LD50 ([1]; po) [mg/kg] | toxicity (in words) [6] | anti-hypertensive effects (in words) ([2]; SHR, summary statement) |
| --- | --- | --- | --- | --- | --- | --- | --- | --- | --- | --- | --- | --- | --- | --- |
| CCCCc1ccc(C(=O)O)nc1 [Compound 7, Fusaric acid] | 110 | 130 | 3.5 | 4 | inhibit the production of dopamine-β-hydroxylase | quite high in toxicity |  |  |  |  |  |  |  |  |
| NC(=O)c1ccc(CCC(Cl)CCl)cn1 (stereo not shown) [Compound 4, 5-(3,4-Dichlorobutyl)picolinamide] | 374 | 620 |  |  |  |  | 2 | 4 | Insoluble in water, ether | Soluble in methanol, acetone, benzene, chloroform |  |  |  |  |
| CN(C)C(=O)c1ccc(CCC(Br)CBr)cn1 (stereo not shown) [Compound 3, N.N-Dimethyl-5-(3,4-dibromobutyl)picolinamide] |  |  |  |  |  |  | 3 | 4 |  |  | 304 | 500 |  |  |
| CC(Br)CCc1ccc(C(=O)O)nc1 (stereo not shown) [10-bromo-fusaric acid, 5-(3-bromobutyl)picolinic acid] |  |  |  |  |  |  |  |  | insoluble in n-hexane, petroleum ether | soluble in alcohol, chloroform, acetone, benzene, ethylacetate, and is soluble in hot water but difficulty soluble in cold water |  |  |  |  |
| CC(Br)CCc1ccc(C(N)=O)nc1 (stereo not shown) [Compound 2, 5-(3-Bromobutyl)picolinamide] | 633 | 1050 |  |  |  |  | 2 | 4 |  |  |  |  |  |  |
| O=C(O)c1ccc(CCC(Br)CBr)cn1 (stereo not shown) [Compound 6, 5-(3,4-dibromobutyl)picolinic acid, reference compound] | 132 | 180 |  |  |  |  | 3.2 | 4 | insoluble in cold water and petroleum ether | soluble in alcohol, chloroform, benzene, ethylacetate, and hot water |  |  |  |  |
| CN(C)C(=O)c1ccc(CCC(Cl)CCl)cn1 (stereo not shown) [Compound 5, N.N-Dimethyl-5-(3,4-dichlorobutyl)picolinamide] |  |  |  |  |  |  | 5 | 1.6 |  |  | 188 | 300 |  |  |
| NC(=O)c1ccc(CCC(Br)CBr)cn1 (stereo not shown) [Compound 1, 5-(3,4-Dibromobutyl)picolinamide] | 1170 | 1860 | 1 | 1.6 |  |  |  |  | Insoluble in water, ether | Soluble in alcohol, acetone, benzene, chloroform |  |  | the least toxic | the most effective drug for hypertension |
